pKi: −log10 of the molar value. Numbered stars: 1 amine (or outer) side, 2 acyl side, 3 side chain; on linkers, the order of the positions; unused ones are H or OH. Square brackets hold non-standard residues; d marks the D form. Peptide text beside a SMILES is read from it. * marks the point of attachment. X1 = N=C(N)NCCC[C@@H](NC[C@H](Cc1ccccc1)N*)C(=O)O; X4 = NCCCC[C@@H](CN1CCC[C@H]1C(=O)[*:2])N[*:1]; X2 = CN(CCCCC(Cc1ccccc1)C(=O)[*:2])[*:1]; X3 = CN(C(CCCc1ccccc1)C(=O)[*:2])[*:1]; d(β3hF) = N[C@@H](CC(=O)O)Cc1ccccc1; NMeCha = CN[C@@H](CC1CCCCC1)C(=O)O; NMeF = CN[C@@H](Cc1ccccc1)C(=O)O; NMeGABA = CN(CCCC(=O)[*:2])[*:1]; Cha = N[C@@H](CC1CCCCC1)C(=O)O; dCha = N[C@H](CC1CCCCC1)C(=O)O; NMeA = CN[C@@H](C)C(=O)O; Nle = CCCC[C@H](N)C(=O)O; Aze = O=C(O)[C@@H]1CCN1; Ahx = NCCCCCC(=O)O; βAla = NCCC(=O)O; Sar = CNCC(=O)O
Target: T1, C5a Receptor (Homo sapiens, UniProt P21730)
T1 construct: 2.5-25 ug/mL of purified PMNL membrane fragments; endogenous in cells; host or cells: PMNL (polymorphonuclear leukocytes), purified membrane fragments
T1 sequence (P21730 1-350): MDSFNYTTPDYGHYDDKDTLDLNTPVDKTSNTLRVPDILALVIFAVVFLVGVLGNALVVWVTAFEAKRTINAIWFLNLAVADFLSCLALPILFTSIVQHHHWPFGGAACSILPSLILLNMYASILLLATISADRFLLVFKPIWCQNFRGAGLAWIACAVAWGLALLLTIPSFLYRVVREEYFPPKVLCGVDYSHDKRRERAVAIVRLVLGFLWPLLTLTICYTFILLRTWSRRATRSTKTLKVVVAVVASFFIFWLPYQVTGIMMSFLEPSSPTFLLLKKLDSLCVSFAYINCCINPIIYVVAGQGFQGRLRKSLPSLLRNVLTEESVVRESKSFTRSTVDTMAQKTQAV
Test: Anaphylatoxin Receptor Binding Ki Determination (inhibition of 125I-C5a binding to PMNL membrane fragments)
Conditions: 0.03-1 nM 125I-C5a; 2.5-25 ug/mL purified PMNL membrane fragments; filtration; read-out: In vitro C5a Receptor Binding Potency Ki
Source text: Free and membrane-bound ligand were separated by filtration.

SMILES	pKi
CN[C@@H](Cc1ccccc1)C(=O)N[C@@H](CCCCN)C(=O)N1CCC[C@H]1C(=O)N[C@H](CC1CCCCC1)C(=O)N[C@@H](Cc1ccccc1)C(C)N[C@@H](CCCNC(=N)N)C(=O)O (mixture of isomers) [Example 143, (N-Methyl)Phenylalanyl-Lysyl-Prolyl-{(2R)-2-Amino-3-cyclohexylpropanoyl}-Phenylalanyl-.PSI.{(R/S)CH(CH3)NH}-Arginyl-OH]	5.38
CN[C@@H](Cc1ccccc1)C(=O)N[C@@H](CCCCN)C(=O)N1CCC[C@H]1C(=O)N[C@H](CC1CCCCC1)C(=O)N[C@H](CN[C@H](CCCNC(=N)N)C(=O)O)Cc1ccccc1 [Example 2, (N-Methyl)Phenylalanyl-Lysyl-Prolyl-{(2R)-2-Amino-3-cyclohexylpropanoyl}-Phenylalanyl-.PSI.(CH2 NH)-DArginyl-OH] (H-[NMeF]KP[dCha]-X1)	6.00
CC(C)C[C@H](NC(=O)[C@H](CCC(N)=O)NC(=O)CCCCCNC(=O)[C@@H](N)Cc1c[nH]cn1)C(=O)NCC(=O)N[C@@H](CCCNC(=N)N)C(=O)O [Example 4, H-Histidyl-{6-Aminohexanoyl}-Glutaminyl-Leucyl-Glycyl-Arginyl-OH] (H-H[Ahx]QLGR-OH)	3.74
CC(C)C[C@H](NC(=O)[C@H](CC1CCCCC1)NC(=O)CCNC(=O)[C@H](CCCCN)NC(=O)[C@@H](N)Cc1ccccc1)C(=O)N[C@H](C)C(=O)N[C@@H](CCCNC(=N)N)C(=O)O [Example 7, H-Phenylalanyl-Lysyl-{3-Aminopropanoyl}-{(2S)-2-Amino-3-cyclohexylpropanoyl}-Leucyl-DAlanyl-Arginyl-OH] (H-FK[βAla][Cha]L[dA]R-OH)	5.66
C[C@H](NC(=O)[C@H](CCCCN)NC(=O)[C@@H](N)Cc1ccccc1)C(=O)N[C@@H](CC1CCCCC1)C(=O)NCCCCCC(=O)N[C@@H](CCCNC(=N)N)C(=O)O [Example 10, H-Phenylalanyl-Lysyl-Alanyl-{(2S)-2-Amino-3-cyclohexylpropanoyl}-{6-Aminohexanoyl}-Arginyl-OH] (H-FKA[Cha][Ahx]R-OH)	4.07
CC(C)C[C@H](NC(=O)[C@H](CC1CCCCC1)NC(=O)[C@H](C)N(C)C(=O)[C@H](CCCCN)NC(=O)[C@@H](N)Cc1ccccc1)C(=O)N[C@H](C)C(=O)N[C@@H](CCCNC(=N)N)C(=O)O [Example 17, H-Phenylalanyl-Lysyl-(N-Methyl)Alanyl-{(2S)-2-Amino-3-cyclohexylpropanoyl}-Leucyl-DAlanyl-Arginyl-OH] (H-FK[NMeA][Cha]L[dA]R-OH)	5.60
C[C@H](NC(=O)[C@H](CCCCN)NC(=O)[C@@H](N)Cc1ccccc1)C(=O)N[C@@H](CC1CCCCC1)C(=O)NCCC(=O)N[C@H](CCCNC(=N)N)C(=O)O [Example 19, H-Phenylalanyl-Lysyl-Alanyl-{(2S)-2-Amino-3-cyclohexylpropanoyl}-{3-Aminopropanoyl}-DArginyl-OH] (H-FKA[Cha][βAla][dR]-OH)	3.89
CN[C@@H](Cc1ccccc1)C(=O)N[C@@H](CCCCN)C(=O)N(C)[C@@H](C)C(=O)N[C@H](CC1CCCCC1)C(=O)N[C@@H](CC1CCCCC1)C(=O)N[C@H](CCCNC(=N)N)C(=O)O [Example 34, (N-Methyl)Phenylalanyl-Lysyl-(N-Methyl)Alanyl-{(2R)-2-Amino-3-cyclohexylpropanoyl}-{(2S)-2-Amino-3-cyclohexylpropanoyl}-DArginyl-OH] (H-[NMeF]K[NMeA][dCha][Cha][dR]-OH)	7.47
C[C@H](NC(=O)[C@H](CCCCN)NC(=O)[C@@H](N)Cc1ccccc1)C(=O)N[C@H](CC1CCCCC1)C(=O)N(C)[C@@H](CC1CCCCC1)C(=O)N[C@H](CCCNC(=N)N)C(=O)O [Example 40, H-Phenylalanyl-Lysyl-Alanyl-{(2R)-2-Amino-3-cyclohexylpropanoyl}-{(N-Methyl)(2S)-2-Amino-3cyclohexylpropanoyl}-DArginyl-OH] (H-FKA[dCha][NMeCha][dR]-OH)	6.23
N=C(N)NCCC[C@@H](NC(=O)[C@H](CC1CCCCC1)NC(=O)[C@@H](CC1CCCCC1)NC(=O)[C@@H]1CCN1C(=O)[C@H](CCCCN)NC(=O)[C@@H](N)Cc1ccccc1)C(=O)O [Example 43, H-Phenylalanyl-Lysyl-{(2S)-Azetidine-2-carbonyl}-{(2R)-2-Amino-3-cyclohexylpropanoyl}-{(2S)-2-Amino-3-cyclohexylpropanoyl}-DArginyl-OH] (H-FK[Aze][dCha][Cha][dR]-OH)	7.64
CN(CC(=O)N[C@H](CC1CCCCC1)C(=O)N[C@@H](CC1CCCCC1)C(=O)N[C@H](CCCNC(=N)N)C(=O)O)C(=O)[C@H](CCCCN)NC(=O)[C@@H](N)Cc1ccccc1 [Example 56, H-Phenylalanyl-Lysyl-Sarcosyl-{(2R)-2-Amino-3-cyclohexylpropanoyl}-{(2S)-2-Amino-3-cyclohexylpropanoyl}-DArginyl-OH] (H-FK[Sar][dCha][Cha][dR]-OH)	7.85
CN[C@@H](Cc1ccccc1)C(=O)N[C@@H](CCCCN)C(=O)N(C)[C@@H](Cc1ccccc1)C(=O)N[C@H](CC1CCCCC1)C(=O)N[C@@H](CC1CCCCC1)C(=O)N[C@H](CCCNC(=N)N)C(=O)O [Example 61, (N-Methyl)Phenylalanyl-Lysyl-(N-Methyl)Phenylalanyl-{(2R)-2-Amino-3-cyclohexylpropanoyl}-{(2S)-2-Amino-3-cyclohexylpropanoyl}-DArginyl-OH] (H-[NMeF]K[NMeF][dCha][Cha][dR]-OH)	6.66
CCCC[C@H](NC(=O)[C@H](Cc1ccccc1)NC)C(=O)N(C)[C@@H](C)C(=O)N[C@H](CC1CCCCC1)C(=O)N[C@@H](CC1CCCCC1)C(=O)N[C@H](CCCNC(=N)N)C(=O)O [Example 62, (N-Methyl)Phenylalanyl-Norleucyl-(N-Methyl)Alanyl-{(2R)-2-Amino-3-cyclohexylpropanoyl}-{(2S)-2-Amino-3-cyclohexylpropanoyl}-DArginyl-OH] (H-[NMeF][Nle][NMeA][dCha][Cha][dR]-OH)	6.59
CN[C@@H](Cc1ccccc1)C(=O)N[C@@H](CCCCN)CN1CCC[C@H]1C(=O)N[C@H](CC1CCCCC1)C(=O)N[C@@H](CC1CCCCC1)C(=O)N[C@H](CCCNC(=N)N)C(=O)O [Example 79, (N-Methyl)Phenylalanyl-Lysyl-.PSI.{CH2 NH}-Prolyl-{(2R)-2-Amino-3-cyclohexylpropanoyl}-{(2S)-2-Amino-3-cyclohexylpropanoyl}-DArginyl-OH] (H-[NMeF][X4][dCha][Cha][dR]-OH)	4.84
CN[C@@H](Cc1ccccc1)C(=O)N[C@@H](CCCCN)C(=O)N1CCC[C@H]1CN[C@H](CC1CCCCC1)C(=O)N[C@@H](Cc1ccccc1)C(=O)N[C@H](CCCNC(=N)N)C(=O)O [Example 103]	6.44
CN[C@@H](Cc1ccccc1)C(=O)N[C@@H](CCCCN)C(=O)N(C)CCCC(=O)N[C@@H](Cc1ccccc1)C(=O)N[C@H](CCCNC(=N)N)C(=O)O [Example 121, (N-Methyl)Phenylalanyl-Lysyl-{4-(Methylamino)butanoyl}-Phenylalanyl-DArginyl-OH] (H-[NMeF]K[NMeGABA]F[dR]-OH)	4.68
CN[C@@H](Cc1ccccc1)C(=O)N[C@@H](CCCCN)C(=O)N(C)CCCCC(Cc1ccccc1)C(=O)N[C@@H](Cc1ccccc1)C(=O)N[C@H](CCCNC(=N)N)C(=O)O (stereo partly shown) [Example 134] (H-[NMeF]K[X2]F[dR]-OH)	5.17
CN[C@@H](Cc1ccccc1)C(=O)N[C@@H](CCCCN)C(=O)N(C)C(CCCc1ccccc1)C(=O)N[C@H](CC1CCCCC1)C(=O)N[C@@H](Cc1ccccc1)C(=O)N[C@H](CCCNC(=N)N)C(=O)O (stereo partly drawn) [Example 156, (N-Methyl)Phenylalanyl-Lysyl-{(2R/S)-2-Methylamino-5-phenylpentanoyl}-{(2R)-2-Amino-3-cyclohexylpropanoyl}-Phenylalanyl-DArginyl-OH] (H-[NMeF]K[X3][dCha]F[dR]-OH)	6.18
CN[C@@H](Cc1ccccc1)C(=O)N[C@@H](CCCCN)C(=O)N1CCC[C@H]1C(=O)N[C@H](CC1CCCCC1)C(=O)N[C@@H](Cc1ccccc1)C(=O)N[C@@H](CC(=O)O)Cc1ccccc1 [Example 170, (N-Methyl)Phenylalanyl-Lysyl-Prolyl-{(2R)-2-Amino-3-cyclohexylpropanoyl}-Phenylalanyl-{(3R)-Amino-4-phenylbutanoic acid}] (H-[NMeF]KP[dCha]F[d(β3hF)]-OH)	5.59

From patent US5387671A, “Hexa- and heptapeptide anaphylatoxin-receptor ligands” (Abbott Laboratories, priority 1990, dated 1995)
